Laboratory results taken from BindingDB's records for PubMed 7915318 (Ohio State University, 1994).
“And” between values parts separate entries of the source, which are not always exact repeats. Equal values may be shown once.

Columns and labels:
[1] = target: Beta-2 adrenergic receptor (Homo sapiens, UniProt P07550)
[2] = target: Beta-1 adrenergic receptor (Homo sapiens, UniProt P08588)
[3] = target: Beta-1 adrenergic receptor (Cavia porcellus, UniProt B0FL73)
[4] = target: Beta-2 adrenergic receptor (Cavia porcellus, UniProt Q8K4Z4)
Sequence of Beta-2 adrenergic receptor (Cavia porcellus, UniProt Q8K4Z4) (Q8K4Z4 whole entry): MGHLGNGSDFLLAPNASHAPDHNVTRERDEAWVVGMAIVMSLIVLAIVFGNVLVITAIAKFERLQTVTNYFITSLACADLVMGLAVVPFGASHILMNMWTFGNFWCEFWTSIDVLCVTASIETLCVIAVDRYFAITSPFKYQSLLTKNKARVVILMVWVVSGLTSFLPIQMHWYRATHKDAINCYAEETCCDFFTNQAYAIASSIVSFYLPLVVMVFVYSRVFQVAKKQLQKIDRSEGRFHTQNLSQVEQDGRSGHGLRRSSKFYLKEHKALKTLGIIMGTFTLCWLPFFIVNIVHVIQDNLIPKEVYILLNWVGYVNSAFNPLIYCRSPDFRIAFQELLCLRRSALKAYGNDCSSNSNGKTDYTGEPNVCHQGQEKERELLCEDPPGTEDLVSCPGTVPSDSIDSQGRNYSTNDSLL

Sequence of Beta-2 adrenergic receptor (Homo sapiens, UniProt P07550) (P07550 whole entry): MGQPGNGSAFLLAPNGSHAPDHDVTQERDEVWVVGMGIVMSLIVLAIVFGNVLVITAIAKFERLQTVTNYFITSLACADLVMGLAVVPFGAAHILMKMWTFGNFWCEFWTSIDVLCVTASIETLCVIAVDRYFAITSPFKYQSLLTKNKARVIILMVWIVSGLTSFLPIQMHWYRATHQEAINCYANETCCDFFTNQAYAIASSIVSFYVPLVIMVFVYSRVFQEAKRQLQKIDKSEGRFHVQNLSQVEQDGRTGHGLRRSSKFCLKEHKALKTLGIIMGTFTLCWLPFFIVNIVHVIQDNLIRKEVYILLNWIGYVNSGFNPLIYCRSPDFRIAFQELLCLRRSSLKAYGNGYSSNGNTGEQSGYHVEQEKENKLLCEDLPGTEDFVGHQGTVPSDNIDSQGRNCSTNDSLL
Sequence of Beta-1 adrenergic receptor (Homo sapiens, UniProt P08588) (P08588 whole entry): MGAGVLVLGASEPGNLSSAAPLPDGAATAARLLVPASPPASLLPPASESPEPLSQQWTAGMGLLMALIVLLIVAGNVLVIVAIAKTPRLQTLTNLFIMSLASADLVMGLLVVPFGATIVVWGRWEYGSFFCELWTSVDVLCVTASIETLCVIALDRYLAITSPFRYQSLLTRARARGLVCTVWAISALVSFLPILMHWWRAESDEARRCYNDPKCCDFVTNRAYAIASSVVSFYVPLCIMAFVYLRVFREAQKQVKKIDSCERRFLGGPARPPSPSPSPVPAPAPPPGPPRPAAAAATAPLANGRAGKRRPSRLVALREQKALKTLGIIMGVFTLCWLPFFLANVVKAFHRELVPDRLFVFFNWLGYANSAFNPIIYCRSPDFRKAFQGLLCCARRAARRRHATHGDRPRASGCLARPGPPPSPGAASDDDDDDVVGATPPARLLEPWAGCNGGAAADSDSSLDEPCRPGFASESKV
Sequence of Beta-1 adrenergic receptor (Cavia porcellus, UniProt B0FL73) (B0FL73 whole entry): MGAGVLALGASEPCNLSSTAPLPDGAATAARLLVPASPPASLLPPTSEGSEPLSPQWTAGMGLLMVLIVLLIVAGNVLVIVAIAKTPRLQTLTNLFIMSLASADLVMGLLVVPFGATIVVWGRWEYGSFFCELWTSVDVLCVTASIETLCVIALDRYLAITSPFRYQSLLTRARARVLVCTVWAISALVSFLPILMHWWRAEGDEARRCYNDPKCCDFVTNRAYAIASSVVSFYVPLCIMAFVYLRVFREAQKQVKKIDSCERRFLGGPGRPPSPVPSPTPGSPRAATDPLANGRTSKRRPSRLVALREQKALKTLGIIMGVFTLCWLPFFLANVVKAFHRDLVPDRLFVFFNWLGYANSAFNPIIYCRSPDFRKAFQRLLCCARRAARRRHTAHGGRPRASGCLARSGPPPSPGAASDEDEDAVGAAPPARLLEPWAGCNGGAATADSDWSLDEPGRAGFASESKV

Work on COc1cc(CC2NCCc3cc(O)c(O)c(F)c32)cc(OC)c1OC (racemic) [NSC_128658] yielded a Ki [1] of 8.7 nM and a Ki [2] of 37.1 nM.
CC(C)(C)NCC(O)c1cc(O)cc(O)c1 (racemic) [Terbutaline,(+/-)] was tested, and the Ki [3] was greater than 10000 nM.
COc1cc(CC2NCCc3cc(O)c(O)cc32)cc(OC)c1OC (stereo unspecified) [1-(3,4,5-Trimethoxy-benzyl)-1,2,3,4-tetrahydro-isoquinoline-6,7-diol] was tested, and the Ki [4] was 105 nM and 22.9 nM.
In the case of COc1cc(C[C@@H]2NCCc3cc(O)c(O)cc32)cc(OC)c1OC [CAS_65772], the Ki [3] is reported as 110 nM and the Ki [4] is reported as 27.5 nM and 9.77 nM.
For CC(C)NCC(O)c1ccc(O)c(O)c1 (stereo not drawn) [Isoproterenol,(+)], the Ki [4] was 324 nM and 107 nM.
For CC(C)NCC(O)COc1cccc2[nH]ccc12 (stereo unspecified) [LB-46], the Ki [3] was 7.24 nM and the Ki [4] was 2.63 nM and 1.14 nM.
With COc1c(I)cc(CC2NCCc3cc(O)c(O)cc32)cc1I (stereo unspecified) [TMQ, 3',5'-Diiodo] the Ki [1] was 0.58 nM and 0.74 nM, the Ki [3] was 10.5 nM and the Ki [4] was 2.81 nM and 0.97 nM.
For COc1cc(CC2NCCc3cc(O)c(O)cc32)cc(N)c1OC (stereo unspecified) [TMQ, 3'-Amino], the Ki [1] was 141 nM, the Ki [3] was 457 nM and the Ki [4] was 490 nM and 97.7 nM. It also gave a Ki [2] of 214 nM.
In the case of COc1cc(CC2NCCc3cc(O)c(O)cc32)cc(I)c1OC (stereo unspecified) [TMQ, 3'-Iodo], the Ki [1] is reported as 2.69 nM and 1.69 nM, the Ki [3] is reported as 10 nM and the Ki [4] is reported as 1.09 nM and 2.34 nM. It also gave a Ki [2] of 12.6 nM.
With COc1cc(CC2NCCc3cc(O)c(O)cc32)cc([N+](=O)[O-])c1OC (stereo unspecified) [TMQ, 3'-Nitro] the Ki [1] was 46.8 nM, the Ki [3] was 31.6 nM and the Ki [4] was 11 nM and 2.75 nM. It also gave a Ki [2] of 14.8 nM.
For COc1cc(CC2NCCc3c(F)c(O)c(O)c(F)c32)cc(OC)c1OC (stereo unspecified) [TMQ, 5,8-Difluoro], the Ki [1] was 8.7 nM and 6.16 nM, the Ki [3] was 34.7 nM and the Ki [4] was 6.6 nM and 4.26 nM. The Ki [2] was 7.41 nM.
In the case of COc1cc(CC2NCCc3c2cc(O)c(O)c3I)cc(OC)c1OC (stereo unspecified) [TMQ, 5-Iodo], the Ki [1] is reported as 10.2 nM, the Ki [3] is reported as 33.9 nM and the Ki [4] is reported as 37.1 nM and 11.5 nM.
For COc1cc(CC2NCCc3c2cc(O)c(O)c3C(F)(F)F)cc(OC)c1OC (stereo unspecified) [TMQ, 5-TrifluoroMe], the Ki [3] was 1100 nM and the Ki [4] was 1170 nM and 912 nM.
With COc1cc(CC2NCCc3cc(O)c(O)c(I)c32)cc(OC)c1OC (stereo unspecified) [TMQ, 8-Iodo] the Ki [1] was 759 nM and 437 nM, the Ki [3] was 631 nM and the Ki [4] was 363 nM and 380 nM.
In the case of COc1cc(CC2=NCCc3cc(O)c(O)cc32)cc(OC)c1OC [TMQ, Amidine], the Ki [4] is reported as greater than 10000 nM.
COc1cc(CC2NCCc3cc(O)c(O)cc32)cc2c1OS(=O)O2 (stereo unspecified) [TMQ, Cyclic sulfite] was tested, and the Ki [3] was greater than 10000 nM and the Ki [4] was 3470 nM and 1950 nM.
In the case of COc1cc(CC2c3cc(O)c(O)cc3CCN2Cc2cccc(N)c2)cc(OC)c1OC (stereo unspecified) [TMQ, N-amino-benzyl], the Ki [1] is reported as 933 nM and the Ki [4] is reported as 3720 nM and 1320 nM.
Work on COc1cc(CC2c3cc(O)c(O)cc3CCN2Cc2ccccc2)cc(OC)c1OC (stereo unspecified) [TMQ, N-benzyl] yielded a Ki [3] of 1100 nM.
COc1cc(CC2c3cc(O)c(O)cc3CCN2Cc2cccc(Cl)c2)cc(OC)c1OC (stereo unspecified) [TMQ, N-chloro-benzyl] showed a Ki [3] of 6170 nM and a Ki [4] of 1260 nM.
COc1cc(CC2c3cc(O)c(O)cc3CCN2Cc2ccc(Cl)c(Cl)c2)cc(OC)c1OC (stereo unspecified) [TMQ, N-dichlorobenzyl] was tested, and the Ki [3] was 3550 nM and the Ki [4] was 1860 nM.
COc1cc(CC2c3cc(O)c(O)cc3CCN2CCO)cc(OC)c1OC (stereo unspecified) [TMQ, N-hydroxyethyl] gave a Ki [3] of 5370 nM and a Ki [4] of 2750 nM.
COc1cc(CC2c3cc(O)c(O)cc3CCN2C)cc(OC)c1OC (stereo unspecified) [TMQ, N-methyl] showed a Ki [4] of 851 nM.
With COc1cc(CC2c3cc(O)c(O)cc3CCN2Cc2cccc([N+](=O)[O-])c2)cc(OC)c1OC (stereo unspecified) [TMQ, N-nitro-benzyl] the Ki [4] was 1620 nM and 1480 nM.
COc1cc(C[C@H]2NCCc3cc(O)c(O)cc32)cc(OC)c1OC [TMQ, R-(+)] was tested, and the Ki [3] was greater than 10000 nM and the Ki [4] was > 10000 nM and 9330 nM.
For COc1cc(C[C@H]2NCCc3cc(O)c(O)c(F)c32)cc(OC)c1OC [TMQ, R-(-)-8-Fluoro], the Ki [1] was 437 nM and the Ki [2] was 417 nM.
In the case of COc1cc(C[C@@H]2NCCc3cc(O)c(O)c(F)c32)cc(OC)c1OC [TMQ, S-(+)-8-Fluoro], the Ki [1] is reported as 10.2 nM and the Ki [2] is reported as 67.6 nM.
